From patent US20240300940A1, “Phenothiazinyl Compounds and Uses” (Prosetta Biosciences, Inc., priority 2023, published 2024)
Read-outs that look alike come from different tables or passages of the source.

Key:
C. albicans ATCC 24433 = assay: Antifungal MIC assay; conditions: Candida albicans, ATCC24433
S. aureus ATCC25923 = assay: MIC assay, serial dilution; conditions: Staphylococcus aureus
E. coli ATCC25922 = assay: MIC assay, serial dilution; conditions: Escherichia coli
A. baumannii ATCC19606 = assay: MIC assay, serial dilution; conditions: Acinetobacter baumannii
Hennes-20 cells = assay: Hennes-20 oncology screen; assay type: cell-based; conditions: 72 h, alamar Blue
Procedure: To screen compounds for oncology activity Hennes-20 cells were plated at low (500 cells/well) versus high (15,000 cells/well) densities and treated with DMSO (vehicle) or dose-titration of compounds. The rationale for this screen is that an intrinsically toxic compound should kill cells regardless of density, including in Hennes-20 cells. However, a compound that selectively triggers the arrest of proliferation will inhibit cell growth when plated at a low density will appear cytotoxic due to inhibition of cell growth when plated at a low density but will appear non-toxic to cells plated at a high density where the cells are approaching confluence and the readout detected by a cell viability assay is already close to the maximum.
To conduct the Hennes-20 screen, two 96 well plates were seeded with Hennes 20 cells in parallel where one was plated at a density of 500 cells/well and the other was plated at a density of 15,000 cells/well. 90 uL of minimum essential media was added to each well and plates were placed in a 37 degrees Celsius incubator for 24 hours. The next day, 10 ul of media containing dilutions of compound in DMSO were added to each plate. Six wells on each plate received 10 ul of media containing only DMSO. Each well was gently mixed 5 times with a 100 ul pipette. Plates were incubated at 37 degrees Celsius for 72 hours and then 10 uL of alamar Blue was added to each well. Wells were mixed 5 times then incubated at 37 degrees Celsius for […]. Plates were then read at 530/590.
The rationale for the screen is as follows: Hennes-20 cells lack endogenous apoptosis. Cells plated at low density will proliferate and approach confluence in 72 hrs. A drug that arrests proliferation may have its proliferation blocking effect masked by the triggering of endogenous apoptosis. However, in the Hennes line, lacking endogenous apoptosis, such an arrest is manifest as a dose-dependent maintenance at low cell density. Since the high-density cells are plated close to confluence, the difference between Alamar Blue cell survival readings after 72 hrs reflects the ability of the drug to block proliferation in the low density-plated cells. In the high density-plated cells any diminution of Alamar Blue readout vs vehicle control is due to intrinsic toxicity, not proliferation arrest, since cells were already at confluence. Thus, a compound that appears toxic (low Alamar Blue readings after 72 hrs) on the low-density plate, but which appears non-toxic (high Alamar Blue readings after 72 hrs) on the high-density plate, must be arresting proliferation, since intrinsic compound toxicity should be observed at both low and high cell densities, not selectively on the low-density plate.

NL4-3 Rluc virus = assay: microbe, parasite or virus in culture; assay type: cell-based, HIV; conditions: MT-2 cells, MOI 0.02, 96 hours
[1] = Human immunodeficiency virus 1, NL43, MT2, 96 h
[2] = ATCC25922, read-out: Anti-bacterial Activity (E. coli MIC (uM)), E. coli, Table 5

| SMILES | MIC (C. albicans ATCC 24433) [µM] | MIC (S. aureus ATCC25923) [µg/mL] | MIC (E. coli ATCC25922; ATCC25922, E. coli ATCC25922) [µg/mL] | MIC (A. baumannii ATCC19606) [µg/mL] | EC50 (Hennes-20 cells) [µM] | EC50 (NL4-3 Rluc virus; [1]) [µM] | MIC (E. coli ATCC25922; [2]) [µM] | EC50 (NL4-3 Rluc virus) [µM] |
| --- | --- | --- | --- | --- | --- | --- | --- | --- |
| CC1(C)C2CN(c3ccc4nc5ccc(N6CCCC6)cc5[s+]c4c3)CC21 (centres unmarked) [Compound 150] | 1.6 | 1.6 | 100 | 25 |  |  |  |  |
| CC(C)(C)c1cc([N+]2([O-])CCCC2)cc2[s+]c3cc(N4CCCC4)ccc3nc12 [Compound 133] | 100 | 12.5 | > 100 | 100 |  |  |  |  |
| CC1(C)C2CN(c3cc(N4CC5C(C4)C5(C)C)c4nc5ccc(N6CCCC6)cc5[s+]c4c3)CC21 (centres unmarked) [Compound 125] | 6.25 | 12.5 | > 100 | > 100 | 0.1 |  |  |  |
| CCc1cc(N2CCC(N)CC2)cc2[s+]c3cc(N4CCCCC4)cc(C)c3nc12 [Compound 100] |  |  |  |  |  | 33 | 25 |  |
| c1cc2nc3c(N4CCOCC4)cc(N4CCCC4)cc3[s+]c2cc1N1CCCC1 [Compound 123] | 3.1 | 6.25 | > 100 | 100 |  |  |  |  |
| COC(=O)C1C2C(CN1c1cc(N3CCCC3)cc3[s+]c4cc(N5CCCC5)ccc4nc13)C2(C)C (centres unmarked) [Compound 116] |  | 1.6 | 12.5 | 6.25 |  |  |  |  |
| CC(C)(C)OC(=O)N1CCCN(c2ccc3nc4ccc(N5CCCN(C(=O)OC(C)(C)C)CC5)cc4[s+]c3c2)CC1 [Compound 140] | > 100 | > 100 | > 100 | > 100 |  |  |  |  |
| CC1(C)C2CN(c3cc(N4CCCC4)cc4[s+]c5cc(N6CCCC6)ccc5nc34)CC21 (centres unmarked) [Compound 23] |  |  |  |  | < 0.5 |  | 1.6 |  |
| c1cc2nc3ccc(N4CCCOCC4)cc3[s+]c2cc1N1CCCOCC1 [Compound 141] | > 100 | 100 | > 100 | > 100 |  |  |  |  |
| c1cc2nc3ccc(N4CC5CNCC5C4)cc3[s+]c2cc1N1CC2CNCC2C1 (centres unmarked) [Compound 134] | > 100 | > 100 | > 100 | > 100 | 12.5 |  |  |  |
| CC(C)(C)OC(=O)NC1C2CN(c3cc(N4CCCC4)cc4[s+]c5cc(N6CCCC6)ccc5nc34)CC21 (centres unmarked) [Compound 111] | 1.6 |  |  |  |  |  |  |  |
| c1cc2nc3ccc(N4CCNC4)cc3[s+]c2cc1N1CCNC1 [Compound 137] | > 100 | > 100 | > 100 | > 100 |  |  |  |  |
| Cc1cc(N2CC3C(C2)C3(C)C)cc2[s+]c3cc(N4CC5C(C4)C5(C)C)cc(C)c3nc12 (centres unmarked) [Compound 11] |  |  |  |  | < 0.5 |  | 6.25 |  |
| CCc1cc(N2CCNCC2)cc2[s+]c3cc(N4CCNCC4)cc(C)c3nc12 [Compound 92] |  |  |  |  | > 12.5 | 4.3 |  |  |
| CCc1cc(N(C)C)cc2[s+]c3cc(N4CCCNCC4)cc(CC)c3nc12 [Compound 87] |  |  |  |  |  |  |  | 10 |
| CCc1cc(N2CCCC2)cc2[s+]c3cc(N4CCC(C)C4)cc(C)c3nc12 (centres unmarked) [Compound 57] |  |  |  |  |  | 17 | 12.5 |  |
| c1cc2nc3c(N4CCNCC4)cc(N4CCCC4)cc3[s+]c2cc1N1CCCC1 [Compound 120] | 100 | 100 | > 100 | > 100 | 12.5 |  |  |  |
| FC1(F)CCN(c2ccc3nc4ccc(N5CCC(F)(F)C5)cc4[s+]c3c2)C1 [Compound 53] |  |  |  |  | > 12.5 |  | 12.5 |  |
| c1cc2nc3c(N4CCSC4)cc(N4CCCC4)cc3[s+]c2cc1N1CCCC1 [Compound 118] | 3.1 | 6.25 | > 100 | > 100 | 12.5 |  |  |  |
| CC(C)(C)c1cc(N2CCCC2)cc2[s+]c3cc(N4CCCC4)cc(N4CCCC4)c3nc12 [Compound 130] | 6.25 | 6.25 | 12.5 | 6.25 |  |  |  |  |
| c1ccc2c(c1)Sc1ccccc1N2c1ccc2nc3ccc(N4C5CCCC4CC5)cc3[s+]c2c1 [Compound 148] | 100 | 25 | > 100 | 100 |  |  |  |  |
| Cc1cc(N2CCOCC2)cc2[s+]c3cc(N4CCOCC4)cc(C)c3nc12 [Compound 93] |  |  |  |  | < 12.5 |  | 100 |  |
